Among the data in ChEMBL document CHEMBL1201862, “PubChem BioAssay data set” (2004) are IC50, AC50 and EC50 values, retold here.

Activity calls are given as the source filed them.

For test [1], the target named is T1, Sentrin-specific protease 8 (Homo sapiens, UniProt Q96LD8).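 Also: kinetic enzyme assay of SENP8 cleaving a Nedd8 protein substrate, dose-response confirmation of screening hits.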
T1 sequence (Q96LD8 whole entry): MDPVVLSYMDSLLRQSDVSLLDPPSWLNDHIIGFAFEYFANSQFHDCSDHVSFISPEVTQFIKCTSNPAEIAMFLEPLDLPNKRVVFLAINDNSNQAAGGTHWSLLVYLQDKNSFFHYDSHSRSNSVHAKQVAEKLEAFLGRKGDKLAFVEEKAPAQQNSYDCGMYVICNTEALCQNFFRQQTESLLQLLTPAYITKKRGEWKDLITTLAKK
It counts as functional.

Test [2] is described as follows: Shn3 3'UTR reporter inhibitors, dose response, cell-based, Clone20 osteoblasts, firefly luciferase, cherry-picked (AID 624132).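 Also: firefly luciferase luminescence from reporter carrying the Shn3 3'UTR in osteoblasts.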 It counts as functional.
The target of test [3] is Luciferin 4-monooxygenase (Photinus pyralis, UniProt P08659). As to the kind of experiment: firefly luciferase enzyme inhibitors, dose response, biochemical, luminescence (AID 1891).
Sequence of Luciferin 4-monooxygenase (P08659 whole entry): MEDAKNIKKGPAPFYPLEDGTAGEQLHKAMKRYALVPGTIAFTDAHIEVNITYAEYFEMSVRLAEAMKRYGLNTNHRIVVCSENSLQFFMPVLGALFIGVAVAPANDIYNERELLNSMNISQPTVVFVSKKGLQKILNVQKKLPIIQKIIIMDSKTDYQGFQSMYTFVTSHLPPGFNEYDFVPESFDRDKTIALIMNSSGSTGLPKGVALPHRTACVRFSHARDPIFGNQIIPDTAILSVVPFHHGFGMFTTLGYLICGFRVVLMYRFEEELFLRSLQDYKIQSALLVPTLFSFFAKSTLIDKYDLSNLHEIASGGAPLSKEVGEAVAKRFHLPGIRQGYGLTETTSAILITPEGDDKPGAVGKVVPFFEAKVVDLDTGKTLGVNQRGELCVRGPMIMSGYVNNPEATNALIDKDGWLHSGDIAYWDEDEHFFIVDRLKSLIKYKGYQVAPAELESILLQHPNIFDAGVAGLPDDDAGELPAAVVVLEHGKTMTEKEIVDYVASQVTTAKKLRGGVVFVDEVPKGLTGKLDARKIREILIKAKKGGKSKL
For test [4], the target named is T2, Heat shock protein HSP 90-alpha (Homo sapiens, UniProt P07900). It counts as functional, organism-based.
For test [5], the target named is T3, Rac GTPase-activating protein 1 (Homo sapiens, UniProt Q9H0H5).
T3 sequence (Q9H0H5 whole entry): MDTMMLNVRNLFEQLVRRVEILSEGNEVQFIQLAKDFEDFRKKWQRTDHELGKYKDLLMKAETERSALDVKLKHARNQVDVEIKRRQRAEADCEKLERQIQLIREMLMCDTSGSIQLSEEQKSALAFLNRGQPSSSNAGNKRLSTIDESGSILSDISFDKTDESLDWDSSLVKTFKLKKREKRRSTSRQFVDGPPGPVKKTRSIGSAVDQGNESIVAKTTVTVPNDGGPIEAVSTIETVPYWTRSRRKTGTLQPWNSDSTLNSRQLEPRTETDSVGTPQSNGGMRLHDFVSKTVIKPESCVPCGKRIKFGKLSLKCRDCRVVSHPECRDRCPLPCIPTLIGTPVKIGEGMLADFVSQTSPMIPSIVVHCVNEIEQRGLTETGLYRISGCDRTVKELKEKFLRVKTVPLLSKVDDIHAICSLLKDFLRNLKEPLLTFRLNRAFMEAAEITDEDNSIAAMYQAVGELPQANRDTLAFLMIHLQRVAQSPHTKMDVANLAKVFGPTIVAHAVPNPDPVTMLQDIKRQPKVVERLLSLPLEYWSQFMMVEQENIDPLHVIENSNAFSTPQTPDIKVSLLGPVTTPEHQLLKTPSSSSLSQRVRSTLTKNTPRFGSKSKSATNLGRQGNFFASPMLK
As to the kind of experiment: MgcRacGAP GTPase-activating activity inhibitors, confirmation, biochemical, ADP Hunter fluorescence, primary and confirmatory (AID 624330). In kind it is functional.

Test [6] is described as follows: control 3'UTR Renilla luciferase suppression, dose response, counter-screen for Shn3 inhibitor project, cell-based, Clone20-Shn3RL, cherry-picked (AID 624133). It counts as functional.
The nature of test [7]: inhibitors of firefly luciferase expression or activity, dose response, H4 neuroglioma cells, luminescence (AID 1990). In kind it is functional, cell-based.
The next test concerns the target Beta Lactamase (Pseudomonas aeruginosa, UniProt Q932Y6). The test can be described thus: beta-lactamase reporter inhibitor potency, dose response, artefact control for TLR9-MyD88 binding inhibitor project, BLA reporter cells, FRET fluorescence (AID 588341).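 Also: cell based assay in CHO-K1 cells stably expressing beta-lactamase.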 It counts as cell-based.
For a further test, the target named is Wee1-like protein kinase (Homo sapiens, UniProt P30291). As to the kind of experiment: Dose Response Cell-based Assay for Inhibitors of Wee1 Degradation. [Related pubchem assays: 1410, 1321 ]. In kind it is functional.
Sequence of Wee1-like protein kinase (P30291 whole entry): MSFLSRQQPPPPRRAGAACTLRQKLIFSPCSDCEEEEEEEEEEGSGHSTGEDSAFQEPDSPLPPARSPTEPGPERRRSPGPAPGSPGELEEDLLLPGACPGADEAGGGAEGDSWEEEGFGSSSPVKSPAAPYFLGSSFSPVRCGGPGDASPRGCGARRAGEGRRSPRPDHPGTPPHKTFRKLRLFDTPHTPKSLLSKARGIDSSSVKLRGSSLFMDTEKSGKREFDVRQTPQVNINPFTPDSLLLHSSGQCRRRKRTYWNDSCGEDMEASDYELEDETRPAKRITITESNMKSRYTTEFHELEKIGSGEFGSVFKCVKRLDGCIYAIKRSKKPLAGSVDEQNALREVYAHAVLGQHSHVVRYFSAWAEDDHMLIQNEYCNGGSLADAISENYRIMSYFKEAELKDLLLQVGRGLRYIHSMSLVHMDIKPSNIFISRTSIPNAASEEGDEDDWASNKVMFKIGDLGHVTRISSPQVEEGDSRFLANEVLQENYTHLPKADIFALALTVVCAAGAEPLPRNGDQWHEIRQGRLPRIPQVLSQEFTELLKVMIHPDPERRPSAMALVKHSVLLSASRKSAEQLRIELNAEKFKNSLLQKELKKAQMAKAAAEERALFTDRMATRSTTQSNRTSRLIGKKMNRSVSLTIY
Test [8] in a line: growth suppression of beta-catenin-knockout colon cells, dose response, cell-based, HCT116, human colon tumor (AID 1045).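 Also: HCT116 colon tumor cells with beta catenin knocked out; cells exposed to compound for 60 hours.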 It counts as functional.
Another test concerns CHO. The test can be described thus: cytotoxicity in TLR9-MyD88 CHO cells, dose response, cytotoxicity control for TLR9-MyD88 binding inhibitor project, cell-based, luminescence (AID 588339).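 Also: CHO cells stably coexpressing TLR9 and MyD88 fusions from primary screen; compound exposure lasted 48 hours before viability readout.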 The following applies: Cricetulus griseus. In kind it is functional, hamster.
Test [9] addresses Photoreceptor-specific nuclear receptor (Homo sapiens, UniProt Q9Y5X4). In kind it is functional, cell-based.
For test [10], the target named is Serine/threonine-protein phosphatase (Homo sapiens, UniProt Q9BPW0). The test can be described thus: PP5 phosphatase inhibitors, dose response, biochemical, fluorescence (AID 2395).
Sequence of Serine/threonine-protein phosphatase (Q9BPW0 whole entry): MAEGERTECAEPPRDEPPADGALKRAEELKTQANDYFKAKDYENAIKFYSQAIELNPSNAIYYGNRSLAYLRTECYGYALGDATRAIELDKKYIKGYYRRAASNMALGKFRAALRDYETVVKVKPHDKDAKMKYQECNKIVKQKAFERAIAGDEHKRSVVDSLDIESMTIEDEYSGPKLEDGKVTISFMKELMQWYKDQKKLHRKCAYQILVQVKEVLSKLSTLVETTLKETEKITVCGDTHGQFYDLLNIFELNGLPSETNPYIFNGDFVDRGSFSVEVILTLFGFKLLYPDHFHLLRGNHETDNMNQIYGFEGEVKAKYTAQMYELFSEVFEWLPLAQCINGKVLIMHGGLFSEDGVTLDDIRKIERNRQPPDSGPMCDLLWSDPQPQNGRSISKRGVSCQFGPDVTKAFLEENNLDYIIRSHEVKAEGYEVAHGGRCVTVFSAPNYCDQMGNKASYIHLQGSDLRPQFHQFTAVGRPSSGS
For test [11], the target named is T4, RNA-binding protein pos-1 (Caenorhabditis elegans, UniProt G5EF15).
T4 sequence (G5EF15 whole entry): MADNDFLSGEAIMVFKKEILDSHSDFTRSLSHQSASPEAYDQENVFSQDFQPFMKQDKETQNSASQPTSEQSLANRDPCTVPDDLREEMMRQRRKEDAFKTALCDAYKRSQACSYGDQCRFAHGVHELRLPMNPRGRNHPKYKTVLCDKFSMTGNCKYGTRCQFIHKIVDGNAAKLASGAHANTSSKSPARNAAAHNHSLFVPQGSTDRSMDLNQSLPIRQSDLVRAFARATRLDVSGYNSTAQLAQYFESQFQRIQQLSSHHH
The test can be described thus: inhibitors of POS-1/mex-3 RNA binding, dose response, biochemical, fluorescence polarization (AID 1964).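 Also: purified POS-1 fused to maltose binding protein made in E. coli; potency of compounds blocking POS-1 binding to fluorescent RNA.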

In test [12] the target is T2, Heat shock protein HSP 90-alpha. As to the kind of experiment: Luminescence-based dose response biochemical high throughput screening assay for inhibitors of the Heat Shock Protein 90 (HSP90). [Related pubchem assays: 1831 (Summary AID.), 1846 (Confirmation screen.), 1789 (Primary screen.)].
Another test deals with Beta-galactosidase (Escherichia coli, UniProt Q8VNN2). As to the kind of experiment: beta-galactosidase enzyme inhibitors and activators, dose response, artefact control for CCR6 antagonist project, biochemical, E. coli enzyme, set 3 (AID 504712). It counts as functional.
Sequence of Beta-galactosidase (Q8VNN2 whole entry): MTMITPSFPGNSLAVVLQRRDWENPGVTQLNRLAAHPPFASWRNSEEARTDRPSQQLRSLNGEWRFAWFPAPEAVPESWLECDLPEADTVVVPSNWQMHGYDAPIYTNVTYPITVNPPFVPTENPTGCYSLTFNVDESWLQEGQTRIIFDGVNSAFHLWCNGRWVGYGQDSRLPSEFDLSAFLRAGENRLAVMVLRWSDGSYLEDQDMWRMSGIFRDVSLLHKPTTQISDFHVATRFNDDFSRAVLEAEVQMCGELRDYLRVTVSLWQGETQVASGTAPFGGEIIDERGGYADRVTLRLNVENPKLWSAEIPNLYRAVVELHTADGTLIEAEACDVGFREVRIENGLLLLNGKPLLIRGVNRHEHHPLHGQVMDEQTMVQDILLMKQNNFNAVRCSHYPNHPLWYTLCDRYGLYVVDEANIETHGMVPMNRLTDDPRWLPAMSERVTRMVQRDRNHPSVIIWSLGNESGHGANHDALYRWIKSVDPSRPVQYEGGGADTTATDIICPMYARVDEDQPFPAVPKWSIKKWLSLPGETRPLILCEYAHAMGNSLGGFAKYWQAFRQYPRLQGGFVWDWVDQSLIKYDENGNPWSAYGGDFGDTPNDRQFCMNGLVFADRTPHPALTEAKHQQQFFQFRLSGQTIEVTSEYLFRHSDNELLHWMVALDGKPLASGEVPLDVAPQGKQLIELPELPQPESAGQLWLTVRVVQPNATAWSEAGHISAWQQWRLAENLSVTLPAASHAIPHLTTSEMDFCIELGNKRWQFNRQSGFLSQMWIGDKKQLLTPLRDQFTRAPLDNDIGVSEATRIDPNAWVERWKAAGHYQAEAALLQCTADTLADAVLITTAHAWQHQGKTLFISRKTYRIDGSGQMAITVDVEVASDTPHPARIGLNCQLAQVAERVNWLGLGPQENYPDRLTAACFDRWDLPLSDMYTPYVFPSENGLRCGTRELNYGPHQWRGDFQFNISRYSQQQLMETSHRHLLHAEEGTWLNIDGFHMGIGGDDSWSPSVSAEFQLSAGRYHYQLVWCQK

Sequence of Photoreceptor-specific nuclear receptor (Q9Y5X4 whole entry): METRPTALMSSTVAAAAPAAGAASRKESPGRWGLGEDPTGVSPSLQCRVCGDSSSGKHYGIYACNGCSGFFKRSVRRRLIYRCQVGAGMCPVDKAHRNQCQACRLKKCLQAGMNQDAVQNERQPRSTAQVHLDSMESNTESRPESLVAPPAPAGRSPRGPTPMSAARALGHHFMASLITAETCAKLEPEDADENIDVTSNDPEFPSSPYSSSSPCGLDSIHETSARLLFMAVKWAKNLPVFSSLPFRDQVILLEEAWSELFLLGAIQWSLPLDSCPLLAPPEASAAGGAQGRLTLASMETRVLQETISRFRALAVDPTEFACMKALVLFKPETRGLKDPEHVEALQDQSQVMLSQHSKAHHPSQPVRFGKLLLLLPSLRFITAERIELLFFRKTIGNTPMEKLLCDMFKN
Sequence of Beta Lactamase (Q932Y6 whole entry): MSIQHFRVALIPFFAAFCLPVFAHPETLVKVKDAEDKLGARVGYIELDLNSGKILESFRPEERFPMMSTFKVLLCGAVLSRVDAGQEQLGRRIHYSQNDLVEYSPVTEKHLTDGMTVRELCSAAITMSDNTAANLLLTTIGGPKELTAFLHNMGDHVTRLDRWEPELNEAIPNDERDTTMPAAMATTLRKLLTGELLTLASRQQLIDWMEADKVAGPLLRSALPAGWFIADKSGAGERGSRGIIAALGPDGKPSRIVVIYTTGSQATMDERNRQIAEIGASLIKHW

As for `Nc1ccc(N2CCCCC2)c2nonc12`, in test [1], the IC50 is 3.28 µM (active).

As to `COc1ccc(NC(=O)/C(Cl)=C(/Cl)[S+]([O-])Cc2ccccc2)cn1` (stereo unspecified), the AC50 was < 0.26 µM (active) in test [2], 2 µM (active) in [4] and < 0.26 µM (active) in test [6]. Moreover, the EC50 was > 112 µM (not active) in [3], 5.93 µM (active) in test [7], > 49.7 µM (not active) on Wee1-like protein kinase and 0.185 µM (active) in test [8]. The concentration for half-maximal inhibition (IC50) is 36.5 µM (active) in test [5], 16 µM (inactive) at Beta Lactamase, 0.453 µM (active) in the test on CHO and 0.92 µM (active) in test [9].

For the compound `Cc1ccc(S(=O)(=O)/N=C2\C=C(Nc3cccc(C(=O)O)c3)C(=O)c3ccccc32)c(C)c1`, the IC50 was 12.3 µM (not active) in test [10], 0.919 µM (active) in test [12] and 43.5 µM (inactive) at Beta-galactosidase. The EC50 in [11] is 68.6 µM (active).
